From US7217730B2, “Method for the use of pyranoindole derivatives to treat infection with Hepatitis C virus” (Wyeth, priority 2002, dated 2007)
Where two headings read alike, the source gives them in different places.

Experiments:
[1] = target: T1, NS5B from the BK strain (genotype 1b) (Hepatitis C virus genotype 1b, UniProt P26663); test: Hepatitis C polymerase inhibition, NS5B BK strain, 33P-GTP filter assay; assay type: biochemical; conditions: for IC50: NS5B BK strain
T1 construct: NS5B from the BK strain (genotype 1b) is expressed in E. coli as a protein in which the 21 C-terminal amino acids are replaced; made in house; host or cells: E. coli
T1 sequence (P26663 2420-2989): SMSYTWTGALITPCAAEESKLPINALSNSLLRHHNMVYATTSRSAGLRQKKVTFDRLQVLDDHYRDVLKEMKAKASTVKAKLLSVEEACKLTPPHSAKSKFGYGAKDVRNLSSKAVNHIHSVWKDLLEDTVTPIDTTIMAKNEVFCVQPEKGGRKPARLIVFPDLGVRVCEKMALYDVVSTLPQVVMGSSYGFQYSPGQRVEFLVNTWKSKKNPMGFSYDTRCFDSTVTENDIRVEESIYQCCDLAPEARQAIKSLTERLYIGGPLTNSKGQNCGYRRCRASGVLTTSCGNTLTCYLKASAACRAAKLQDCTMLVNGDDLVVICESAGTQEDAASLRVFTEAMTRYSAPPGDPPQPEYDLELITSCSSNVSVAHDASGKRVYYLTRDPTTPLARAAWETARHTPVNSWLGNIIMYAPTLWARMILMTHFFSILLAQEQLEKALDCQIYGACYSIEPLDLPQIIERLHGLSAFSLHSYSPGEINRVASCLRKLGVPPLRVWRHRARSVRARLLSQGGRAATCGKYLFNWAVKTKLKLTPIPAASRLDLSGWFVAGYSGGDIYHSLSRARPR
How it was run: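 Radiolabelled RNA synthesis was measured by filter capture and scintillation counting after EDTA stop. His-tagged, C-terminally truncated (Δ21) genotype 1b BK NS5B from E. coli, pre-exposed to compound for 15 min, copied a self-primed RNA template (~3 nM) with α-[33P]-GTP for 2 h at room temperature.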

[2] = target: BB7 (RNA-dependent RNA polymerase hepatitis C virus protein sequence derived from HCV replicon) (Hepatitis C virus genotype 1b, UniProt Q9WMX2); test: Hepatitis C polymerase inhibition, BB7 sequence; assay type: biochemical; conditions: Table 1B
Sequence of BB7 (RNA-dependent RNA polymerase hepatitis C virus protein sequence derived from HCV replicon) (Q9WMX2 2420-3010): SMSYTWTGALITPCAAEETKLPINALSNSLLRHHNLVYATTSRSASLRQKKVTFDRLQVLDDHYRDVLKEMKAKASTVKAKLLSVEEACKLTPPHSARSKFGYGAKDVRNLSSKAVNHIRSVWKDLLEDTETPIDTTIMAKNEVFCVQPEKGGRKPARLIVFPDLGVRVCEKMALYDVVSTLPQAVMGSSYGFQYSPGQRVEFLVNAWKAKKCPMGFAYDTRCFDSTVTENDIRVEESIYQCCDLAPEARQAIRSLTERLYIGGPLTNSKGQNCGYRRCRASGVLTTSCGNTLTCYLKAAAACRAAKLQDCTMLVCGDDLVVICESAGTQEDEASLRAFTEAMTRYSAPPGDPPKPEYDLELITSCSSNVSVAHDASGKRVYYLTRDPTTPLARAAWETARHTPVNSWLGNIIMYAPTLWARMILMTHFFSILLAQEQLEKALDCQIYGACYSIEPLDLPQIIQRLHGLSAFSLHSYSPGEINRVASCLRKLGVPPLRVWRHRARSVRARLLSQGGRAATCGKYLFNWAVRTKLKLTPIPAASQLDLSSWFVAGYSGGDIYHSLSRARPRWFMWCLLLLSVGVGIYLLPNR

[3] = Table 1A, read-out: HCV pol BK IC50

| Compound | IC50 ([1]; Table 1B, read-out: BK IC50) [µM] | IC50 [2] [µM] | IC50 [1, 3] [µM] | further results |
| --- | --- | --- | --- | --- |
| CC[C@H](C)C1(CC(=O)O)OCCc2c1[nH]c1c(C)ccc(Cl)c21 (mixture of isomers) [Example 261, (1R*,10S)-[5-chloro-8-methyl-1-(1-methylpropyl)-1,3,4,9-tetrahydropyrano[3,4-b]indol-1-yl]acetic acid] | 0.4 | 0.9 |  |  |
| CC[C@H](C)C1(CC(=O)O)OCCc2c1[nH]c1c(C#N)ccc(C(F)(F)F)c21 (mixture of isomers) [Example 279, (1R*,10S)-[8-cyano-1-(1-methylpropyl)-5-trifluoromethyl-1,3,4,9-tetrahydropyrano[3,4-b]indol-1-yl]acetic acid] | 2 | 2.4 |  |  |
| CC[C@H](C)C1(CC(=O)O)OCCc2c1[nH]c1c(C)ccc([N+](=O)[O-])c21 (mixture of isomers) [Example 300, (1R*,10S)-[8-methyl-1-(1-methylpropyl)-5-nitro-1,3,4,9-tetrahydropyrano[3,4-b]indol-1-yl]acetic acid] | 0.14 | 0.25 |  |  |
| CC[C@H](C)C1(CC(=O)O)OCCc2c1[nH]c1c(C)cc(F)c(C#N)c21 (mixture of isomers) [Example 318, (1R*,10S)-[5-cyano-6-fluoro-8-methyl-1-(1-methylpropyl)-1,3,4,9-tetrahydropyrano[3,4-b]indol-1-yl]acetic acid] | 0.14 | 0.25 |  |  |
| CC[C@H](C)C1(CC(=O)O)OCCc2c1[nH]c1c(Cl)ccc(C#N)c21 (mixture of isomers) [Example 324] | 0.2 | 0.35 |  |  |
| CC[C@H](C)[C@@]1(CC(=O)O)OCCc2c1[nH]c1c(C)ccc(C#N)c21 (racemic) [Example 289, (1R*,10S*)-[5-cyano-8-methyl-1-(1-methylpropyl)-1,3,4,9-tetrahydropyrano[3,4-b]indol-1-yl]acetic acid] | 0.12 | 0.23 |  |  |
| CC[C@@H](C)[C@@]1(CC(=O)O)OCCc2c1[nH]c1c(C)ccc(C#N)c21 (racemic) [Example 290, (1R*,10R*)-[5-cyano-8-methyl-1-(1-methylpropyl)-1,3,4,9-tetrahydropyrano[3,4-b]indol-1-yl]acetic acid] | 3.2 | 4.9 |  |  |
| CCC(C)C1(CC(=O)O)OCCc2c1[nH]c1c(C)ccc(C#N)c21 (racemic) [Example 291, (1R*,10S)-[5-cyano-8-methyl-1-(1-methylpropyl)-1,3,4,9-tetrahydropyrano[3,4-b]indol-1-yl]acetic acid] | 0.23 | 0.5 |  |  |
| CC[C@H](C)[C@@]1(CC(=O)O)OCCc2c1[nH]c1c(F)ccc(C#N)c21 (racemic) [Example 313, (1R*,10S*)-[5-cyano-8-fluoro-1-(1-methylpropyl)-1,3,4,9-tetrahydropyrano[3,4-b]indol-1-yl]acetic acid] | 1.8 | 1.5 |  |  |
| CCC(C)C1(CC(=O)O)OCCc2c1[nH]c1c(F)ccc(C#N)c21 (racemic) [Example 314, (1R*,10S)-[5-cyano-8-fluoro-1-(1-methylpropyl)-1,3,4,9-tetrahydropyrano[3,4-b]indol-1-yl]acetic acid] | 1.4 | 3.1 |  |  |
| CC[C@@H](C)[C@@]1(C(=O)O)OCCc2c1[nH]c1c(C)ccc(C#N)c21 (racemic) [Example 336, (1R*,10R*)-[5-cyano-8-methyl-1-(1-methylpropyl)-1,3,4,9-tetrahydropyrano[3,4-b]indol-1-yl]carboxylic acid] | 4.7 | 8.7 |  |  |
| CC[C@H](C)[C@@]1(C(=O)O)OCCc2c1[nH]c1c(F)ccc(C#N)c21 (racemic) [Example 348, (1R*,10S*)-[5-cyano-8-fluoro-1-(1-methylpropyl)-1,3,4,9-tetrahydropyrano[3,4-b]indol-1-yl]carboxylic acid] | > 30 | > 30 |  |  |
| CC[C@H](C)[C@@]1(C(=O)O)OCCc2c1[nH]c1c(C)ccc(C#N)c21 (relative stereo) [Example 335, (1R*,10S*)-[5-cyano-8-methyl-(1-methylpropyl)-1,3,4,9-tetrahydropyrano[3,4-b]indol-1-yl]carboxylic acid] | > 30 | > 30 |  |  |
| CC[C@@H](C)[C@@]1(C(=O)O)OCCc2c1[nH]c1c(F)ccc(C#N)c21 (relative stereo) [Example 349, (1R*,10R*)-[5-cyano-8-fluoro-1-(1-methylpropyl)-1,3,4,9-tetrahydropyrano[3,4-b]indol--1-yl]carboxylic acid] | 4.4 | > 24 |  |  |
| CC[C@@H](C)[C@@]1(CC(=O)O)OCCc2c1[nH]c1c(F)ccc(C#N)c21 (single isomer, unassigned) [Example 312, (1R*,10R*)-[5-cyano-8-fluoro-1-(1-methylpropyl)-1,3,4,9-tetrahydropyrano[3,4-b]indol-1-yl]acetic acid] | 16 | > 30 |  |  |
| C/C=C/CCC1(CC(=O)O)OCCc2c1[nH]c1c(F)cc(C)c(C#N)c21 (stereo not shown) [Example 223, {5-cyano-8-fluoro-6-methyl-1-[(3E)-pent-3-enyl]-1,3,4,9-tetrahydropyrano[3,4-b]indol-1-yl}acetic acid] |  |  | > 5 | inhibition at 20 µM ([1]; Table 1A, 20 μM compound, read-out: HCV pol % inh at 20 μM): 37% |
| CCCC1(CC(=O)O)OCCc2c1[nH]c1c(C)ccc(C(=O)NC)c21 (stereo not shown) [Example 224, (8-methyl-5-methylcarbamoyl-1-propyl-1,3,4,9-tetrahydropyrano[3,4-b]indol-1-yl)acetic acid] |  |  | > 20 |  |
| CCCC1(CC(=O)O)OCCc2c1[nH]c1c(C)ccc(C(N)=O)c21 (stereo not shown) [Example 226, (5-carbamoyl-8-Methyl-1-propyl-1,3,4,9-tetrahydropyrano[3,4-b]indol-1-yl)acetic acid] |  |  | > 20 |  |

| Compound | IC50 ([1]; Table 1B, read-out: BK IC50) [µM] | IC50 [2] [µM] | IC50 [1, 3] [µM] | further results |
| --- | --- | --- | --- | --- |
| CCCC1(CC(=O)O)OCCc2c1[nH]c1c(C)ccc(C(=O)N(C)C)c21 (stereo not shown) [Example 227, (5-dimethylcarbamoyl-8-Methyl-1-propyl-1,3,4,9-tetrahydropyrano[3,4-b]indol-1-yl)acetic acid] |  |  | > 20 |  |
| CCCC1(CC(=O)O)OC(C)Cc2c1[nH]c1c(F)ccc(C#N)c21 (stereo not shown) [Example 228, (5-cyano-8-fluoro-3-methyl-1-propyl-1,3,4,9-tetrahydropyrano[3,4-b]indol-1-yl)acetic acid] |  |  | 8.9 |  |
| CCCC1(CC(=O)O)OCC(C)c2c1[nH]c1c(Cl)ccc(Cl)c21 (stereo not shown) [Example 229, (5,8-dichloro-4-methyl-1-propyl-1,3,4,9-tetrahydropyrano[3,4-b]indol-1-yl)acetic acid] |  |  | 7 |  |
| CCCC1(CC(=O)O)OCC(C)(C)c2c1[nH]c1c(Cl)ccc(Cl)c21 (stereo not shown) [Example 230, (5,8-dichloro-4,4-dimethyl-1-propyl-1,3,4,9-tetrahydropyrano[3,4-b]indol-1-yl)acetic acid] |  |  | 3.1 |  |
| CCCC1(CC(=O)O)OCCc2c1n(C)c1c(Cl)ccc(Cl)c21 (stereo not shown) [Example 232, (5,8-dichloro-9-methyl-1-propyl-1,3,4,9-tetrahydropyrano[3,4-b]indol-1-yl)acetic acid] |  |  | 7.6 |  |
| C=CCn1c2c(c3c(Cl)ccc(Cl)c31)CCOC2(CCC)CC(=O)O (stereo not shown) [Example 233, (9-allyl-5,8-dichloro-1-propyl-1,3,4,9-tetrahydropyrano[3,4-b]indol-1-yl)acetic acid] |  |  | > 20 |  |
| CCCC1(CC(=O)O)OCCc2c1n(Cc1ccccc1)c1c(Cl)ccc(Cl)c21 (stereo not shown) [Example 234, (9-benzyl-5,8-dichloro-1-propyl-1,3,4,9-tetrahydropyrano[3,4-b]indol-1-yl)acetic acid] |  |  | 13 |  |
| CCOCC1(CC(=O)O)OCCc2c1[nH]c1cc(Cl)c(Cl)cc21 (stereo not shown) [Example 241, (6,7-dichloro-1-ethoxymethyl-1,3,4,9-tetrahydropyrano[3,4-b]indol-1-yl)acetic acid] |  | > 30 |  |  |
| CC1(CC(=O)O)OCCc2c1[nH]c1c(Cl)ccc(Cl)c21 (stereo not shown) [Example 242, (5,8-dichloro-1-methyl-1,3,4,9-tetrahydropyrano[3,4-b]indol-1-yl)acetic acid] |  | 18 |  |  |
| COCC1(CC(=O)O)OCCc2c1[nH]c1c(Cl)ccc(C(F)(F)F)c21 (stereo not shown) [Example 264, (8-chloro-1-methoxymethyl-5-trifluoromethyl-1,3,4,9-tetrahydropyrano[3,4-b]indol-1-yl)acetic acid] | > 30 |  |  |  |
| N#Cc1ccc(F)c2[nH]c3c(c12)CCOC3(CC(=O)O)C1CCCCC1 (stereo not shown) [Example 309, (5-cyano-1-cyclohexyl-8-fluoro-1,3,4,9-tetrahydropyrano[3,4-b]indol-1-yl)acetic acid] | 26 |  |  |  |
| CCC[C@]1(C(=O)O)OCCc2c1[nH]c1c(F)ccc(C#N)c21 [Example 344, (1S)-(5-cyano-8-fluoro-1-propyl-1,3,4,9-tetrahydropyrano[3,4-b]indol-1-yl)carboxylic acid] | 0.7 |  |  |  |
| (1-propyl-8-thien-2-yl-1,3,4,9-tetrahydropyrano[3,4-b]indol-1-yl)acetic acid [Example 95] |  |  | 14.4 | HCV pol % inh at 20 μM ([1]; Table 1A, 20 μM compound): 68% |
| (4-cyclobutyl-5,8-dichloro-1-propyl-1,3,4,9-tetrahydropyrano[3,4-b]indol-1-yl)acetic acid [Example 231] |  |  | 7.2 |  |
| (5-bromo-8-fluoro-1,6-dimethyl-1,3,4,9-tetrahydropyrano[3,4-b]indol-1-yl)acetic acid [Example 163] |  |  | > 10 | HCV pol % inh at 20 μM ([1]; Table 1A, 20 μM compound): 28% |
| (5-cyano-8-fluoro-6-methyl-1-propyl-1,3,4,9-tetrahydropyrano[3,4-b]indol-1-yl)acetic acid [Example 221] |  |  | 0.43 | HCV pol % inh at 20 μM ([1]; Table 1A, 20 μM compound): 81% |
| (8-fluoro-5-iodo-6-methyl-1-propyl-1,3,4,9-tetrahydropyrano[3,4-b]indol-1-yl)acetic acid [Example 218] |  |  | 0.29 | HCV pol % inh at 20 μM ([1]; Table 1A, 20 μM compound): 92% |
